Source: patent US20250353873A1, “COMPOUNDS AND METHODS FOR MODULATING APOE EXPRESSION” (Ionis Pharmaceuticals, Inc., priority 2024, published 2025)
Strand notation (5' to 3'): a small letter for the sugar, then the base; units joined by * are phosphorothioate-linked, units joined directly phosphodiester-linked; [ ] holds rarer units or linkages, { } end groups; capitals alone tell only the bases. e = 2'-O-(2-methoxyethyl) (MOE); [5mC] = 5-methylcytosine; d = 2'-deoxy (DNA)

Tested on: human APOE RNA
Experiment: Activity in APOE 1549 knock-in mice, single ICV bolus, 2 weeks (Example 7)
Assay type: in vivo
Details: single ICV bolus of 300 μg, two weeks post treatment, Table 16
Experimental: Modified oligonucleotides described above were tested in APOE knock-in mice.
APOE knock-in mice (model 41549) were obtained from Taconic Biosciences. APOE knock-in mice were divided into groups of 2 mice each. Each mouse received a single intracerebroventricular (ICV) bolus of 300 μg of modified oligonucleotide. A group of 4 mice received a single ICV bolus with PBS as a negative control.
Two weeks post treatment, mice were sacrificed and RNA was extracted from cortical brain tissue and spinal cord for quantitative real-time RT-PCR analysis of RNA expression of APOE using primer probe set RTS3073 (described herein above). APOE RNA levels were normalized to mouse Ppia. Mouse Ppia was amplified using primer probe set m_cyclo24 (forward sequence TCGCCGCTTGCTGCA, designated herein as SEQ ID NO: 16; reverse sequence ATCGGCCGTGATGTCGA, designated herein as SEQ ID NO: 17; probe sequence […], designated herein as SEQ ID NO: 18). Results are presented as percent human APOE RNA relative to the amount of human APOE RNA in PBS treated animals, (% control). Each experiment is identified in separate tables below.

For “1601942: 6-10-4 MOE gapmer CCGTGTTCCATTTATGAGCT, linkages sooooossssssssssoss (antisense e[5mC]*e[5mC]eGeTeGeTdT*d[5mC]*d[5mC]*dA*dT*dT*dT*dA*dT*dG*eAeG*e[5mC]*eT) [compound 1601942]”, the “APOE RNA (% control) Cortex” value was 84 % control and the “APOE RNA (% control) Spinal Cord” value was 91 % control.
“1601943: 6-10-4 MOE gapmer GTCCTCATTTTAAAGTTCTC, linkages sooooossssssssssoss (antisense eG*eTe[5mC]e[5mC]eTe[5mC]dA*dT*dT*dT*dT*dA*dA*dA*dG*dT*eTe[5mC]*eT*e[5mC]) [compound 1601943]” was tested, and the “APOE RNA (% control) Cortex” value was 115 % control and the “APOE RNA (% control) Spinal Cord” value was 113 % control.
For “1601944: 6-10-4 MOE gapmer CTGGTCTTCTCTTATCTCCC, linkages sooooossssssssssoss (antisense e[5mC]*eTeGeGeTe[5mC]dT*dT*d[5mC]*dT*d[5mC]*dT*dT*dA*dT*d[5mC]*eTe[5mC]*e[5mC]*e[5mC]) [compound 1601944]”, the “APOE RNA (% control) Cortex” value was 109 % control and the “APOE RNA (% control) Spinal Cord” value was 95 % control.
With “1601948: 6-10-4 MOE gapmer GTTCAAATTCCATCCCCCCA, linkages sooooossssssssssoss (antisense eG*eTeTe[5mC]eAeAdA*dT*dT*d[5mC]*d[5mC]*dA*dT*d[5mC]*d[5mC]*d[5mC]*e[5mC]e[5mC]*e[5mC]*eA) [compound 1601948]” the “APOE RNA (% control) Cortex” value was 112 % control and the “APOE RNA (% control) Spinal Cord” value was 105 % control.
In the case of “1601949: 6-10-4 MOE gapmer CTGCAATGCATTAGAAACCT, linkages sooooossssssssssoss (antisense e[5mC]*eTeGe[5mC]eAeAdT*dG*d[5mC]*dA*dT*dT*dA*dG*dA*dA*eAe[5mC]*e[5mC]*eT) [compound 1601949]”, the “APOE RNA (% control) Cortex” value is reported as 77 % control and the “APOE RNA (% control) Spinal Cord” value is reported as 92 % control.
In the case of “1601955: 6-10-4 MOE gapmer GCTAATTCAGTCCTCATTTT, linkages sooooossssssssssoss (antisense eG*e[5mC]eTeAeAeTdT*d[5mC]*dA*dG*dT*d[5mC]*d[5mC]*dT*d[5mC]*dA*eTeT*eT*eT) [compound 1601955]”, the “APOE RNA (% control) Cortex” value is reported as 98 % control and the “APOE RNA (% control) Spinal Cord” value is reported as 111 % control.
